Laboratory results from article PMC4850841 (Journal of medicinal chemistry, 2013).

Legend:
[1] = tested on: GluN2C/D-containing NMDA receptors; experiment: Potentiation of NMDA receptors, results stated jointly for both subtypes; assay type: cell-based, rat; settings: for EC50: read-out: EC50, GluN2C/GluN2D stated jointly, maximally effective concentrations of glutamate and glycine
GluA1 = GluA1 (Rattus norvegicus, UniProt P19490); experiment: Two electrode voltage clamp recordings, Xenopus laevis oocytes; assay type: cell-based; settings: co-applied with 100 µM glutamate
Sequence of GluA1 (P19490 19-907): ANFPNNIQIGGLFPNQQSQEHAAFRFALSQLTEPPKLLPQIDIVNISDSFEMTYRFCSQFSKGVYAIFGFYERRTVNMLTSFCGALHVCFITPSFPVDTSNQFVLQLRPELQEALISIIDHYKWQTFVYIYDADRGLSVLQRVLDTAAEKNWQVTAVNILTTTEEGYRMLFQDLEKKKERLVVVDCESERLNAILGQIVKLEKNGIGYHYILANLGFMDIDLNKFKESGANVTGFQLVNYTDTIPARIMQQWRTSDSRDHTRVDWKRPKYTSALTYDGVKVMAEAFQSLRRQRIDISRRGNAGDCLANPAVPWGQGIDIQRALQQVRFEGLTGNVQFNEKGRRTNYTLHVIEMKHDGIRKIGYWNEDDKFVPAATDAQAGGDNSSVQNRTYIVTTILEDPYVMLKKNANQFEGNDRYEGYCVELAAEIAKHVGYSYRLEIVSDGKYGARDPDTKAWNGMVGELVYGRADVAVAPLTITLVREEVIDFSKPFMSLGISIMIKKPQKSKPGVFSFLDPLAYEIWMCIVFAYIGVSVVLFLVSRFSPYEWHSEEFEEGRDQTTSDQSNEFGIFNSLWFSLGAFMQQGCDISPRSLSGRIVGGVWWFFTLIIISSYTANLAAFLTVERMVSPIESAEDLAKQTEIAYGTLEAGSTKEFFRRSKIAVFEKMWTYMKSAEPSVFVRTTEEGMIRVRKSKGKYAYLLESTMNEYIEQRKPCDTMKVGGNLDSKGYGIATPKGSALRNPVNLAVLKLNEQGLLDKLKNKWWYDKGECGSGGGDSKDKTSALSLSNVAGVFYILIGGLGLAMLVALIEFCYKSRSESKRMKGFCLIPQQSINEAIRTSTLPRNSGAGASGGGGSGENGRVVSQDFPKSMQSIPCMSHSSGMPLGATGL

activity on GluN2C- or GluN2D-containing receptors [1] | SMILES | other results
 | COc1ccc(OCC2c3ccc(OCc4ccccc4)cc3CCN2C(=O)c2cccc(Cl)c2)cc1 (stereo not drawn) [compound 82, (6-(benzyloxy)-1-((4-methoxyphenoxy)methyl)-3,4-dihydroisoquinolin-2(1H)-yl)(3-chlorophenyl)methanone] | EC50 [1]: 300 to 400 nM
 | COc1ccc(OCC2c3cc(OC)c(OC)cc3CCN2C(=O)c2cc(Cl)cc(Cl)c2)cc1 (stereo not drawn) [compound 87, (3,5-dichlorophenyl)(6,7-dimethoxy-1-((4-methoxyphenoxy)methyl)-3,4-dihydroisoquinolin-2(1H)-yl)methanone] | effect on homomeric GluA1 responses (GluA1): no effects
 | COc1ccc(OCC2c3cc(OC)c(OC)cc3CCN2C(=O)c2cccc(CCl)c2)cc1 (stereo not drawn) [compound 96, (3-(chloromethyl)phenyl)(6,7-dimethoxy-1-((4-methoxyphenoxy)methyl)-3,4-dihydroisoquinolin-2(1H)-yl)methanone] | effect on homomeric GluA1 responses (GluA1): no effects
 | COc1ccc(OCC2c3cc(OC)c(OC)cc3CCN2C(=O)c2cccc(C#N)c2)cc1 (stereo not drawn) [compound 98, 3-(6,7-dimethoxy-1-((4-methoxyphenoxy)methyl)-1,2,3,4-tetrahydroisoquinoline-2-carbonyl)benzonitrile] | effect on homomeric GluA1 responses (GluA1): no effects
no detectable activity | CCOc1ccc(OCC2c3cc(OC)c(OC)cc3CCN2C(=O)c2cccc(Cl)c2)cc1 (stereo not drawn) [compound 100, (3-chlorophenyl)(1-((4-ethoxyphenoxy)methyl)-6,7-dimethoxy-3,4-dihydroisoquinolin-2(1H)-yl)methanone] | 
no detectable activity | CCOc1ccc(OCC2c3cc(OC)c(OC)cc3CCN2C(=O)c2cccc(Br)c2)cc1 (stereo not drawn) [compound 101, (3-bromophenyl)(1-((4-ethoxyphenoxy)methyl)-6,7-dimethoxy-3,4-dihydroisoquinolin-2(1H)-yl)methanone] | 
 | COc1ccc(OCC2c3cc4c(cc3CCN2C(=O)c2cccc(Cl)c2)OCO4)cc1 (stereo not drawn) [compound 111, (3-chlorophenyl)(5-((4-methoxyphenoxy)methyl)-7,8-dihydro-[1,3]dioxolo[4,5-g]isoquinolin-6(5H)-yl)methanone] | effect on homomeric GluA1 responses (GluA1): no effects
 | COc1ccc(OCC2c3ccc(OC)cc3CCN2C(=O)c2cccc(Cl)c2)cc1 (stereo not drawn) [compound 117, (3-chlorophenyl)(6-methoxy-1-((4-methoxyphenoxy)methyl)-3,4-dihydroisoquinolin-2(1H)-yl)methanone] | effect on homomeric GluA1 responses (GluA1): no effects
 | COc1ccc(OCC2c3cc(C)c(C)cc3CCN2C(=O)c2cccc(Cl)c2)cc1 (stereo not drawn) [compound 122, (3-chlorophenyl)(1-((4-methoxyphenoxy)methyl)-6,7-dimethyl-3,4-dihydroisoquinolin-2(1H)-yl)methanone] | EC50 [1]: ~1000 nM
 | COc1ccc(OCC2c3cc(C)c(C)cc3CCN2C(=O)c2cccc(Br)c2)cc1 (stereo not drawn) [compound 123, (3-bromophenyl)(1-((4-methoxyphenoxy)methyl)-6,7-dimethyl-3,4-dihydroisoquinolin-2(1H)-yl)methanone] | EC50 [1]: ~1000 nM
eliminated activity | COc1ccc(SCC2c3cc(OC)c(OC)cc3CCN2C(=O)c2ccccc2)cc1 (stereo not drawn) [compound 127, (6,7-dimethoxy-1-(((4-methoxyphenyl)thio)methyl)-3,4-dihydroisoquinolin-2(1H)-yl)(phenyl)methanone] | 
no detectable activity | COc1cc2c(cc1OC)C(COc1ccc([N+](=O)[O-])cc1)N(C(=O)c1ccccc1)CC2 (stereo not drawn) [compound 128, (6,7-dimethoxy-1-((4-nitrophenoxy)methyl)-3,4-dihydroisoquinolin-2(1H)-yl)(phenyl)methanone] | 
no detectable activity | COc1cc2c(cc1OC)C(COc1ccc([N+](=O)[O-])cc1)N(C(=O)c1cccc(Cl)c1)CC2 (stereo not drawn) [compound 129, (3-chlorophenyl)(6,7-dimethoxy-1-((4-nitrophenoxy)methyl)-3,4-dihydroisoquinolin-2(1H)-yl)methanone] | 
no detectable activity | COc1cc2c(cc1OC)C(COc1ccc([N+](=O)[O-])cc1)N(C(=O)c1cccc(Br)c1)CC2 (stereo not drawn) [compound 130, ((3-bromophenyl)(6,7-dimethoxy-1-((4-nitrophenoxy)methyl)-3,4-dihydroisoquinolin-2(1H)-yl)methanone)] | 
no detectable activity | COc1cc2c(cc1OC)C(COc1ccc(N)cc1)N(C(=O)c1ccccc1)CC2 (stereo not drawn) [compound 131, ((1-((4-aminophenoxy)methyl)-6,7-dimethoxy-3,4-dihydroisoquinolin-2(1H)-yl)(phenyl)methanone)] | 
no detectable activity | COc1cc2c(cc1OC)C(COc1ccc(N)cc1)N(C(=O)c1cccc(Cl)c1)CC2 (stereo not drawn) [compound 132, ((1-((4-aminophenoxy)methyl)-6,7-dimethoxy-3,4-dihydroisoquinolin-2(1H)-yl)(3-chlorophenyl)methanone)] | 
no detectable activity | COc1cc2c(cc1OC)C(COc1ccc(N)cc1)N(C(=O)c1cccc(Br)c1)CC2 (stereo not drawn) [compound 133, ((1-((4-aminophenoxy)methyl)-6,7-dimethoxy-3,4-dihydroisoquinolin-2(1H)-yl)(3-bromophenyl)methanone)] | 
eliminated all activity | COc1ccc(OCC2c3cc(OC)c(OC)cc3CCN2Cc2ccccc2)cc1 (stereo not drawn) [compound 141, 2-benzyl-6,7-dimethoxy-1-((4-methoxyphenoxy)methyl)-1,2,3,4-tetrahydroisoquinoline] | 
loss of activity | COc1ccc(OCC2c3cc(OC)c(OC)cc3CCN2C(=S)Nc2ccccc2)cc1 (stereo not drawn) [compound 211] | 
loss of activity | COc1ccc(OCC2c3cc(OC)c(OC)cc3CCN2C(=S)Nc2cccc(Cl)c2)cc1 (stereo not drawn) [compound 212] | 
loss of activity | COc1ccc(OCC2c3cc(OC)c(OC)cc3CCN2C(=S)Nc2cccc(F)c2)cc1 (stereo not drawn) [compound 213] | 
loss of activity | COc1ccc(OCC2c3cc(OC)c(OC)cc3CCN2C(=S)Nc2cccc(Br)c2)cc1 (stereo not drawn) [compound 214] | 
weak potentiating activity | COc1ccc(OCC2c3cc(OC)c(OC)cc3CCN2C(=S)Nc2cccc(C)c2)cc1 (stereo not drawn) [compound 215] | 
eliminated all activity | COc1ccc(OCC2c3cc(OC)c(OC)cc3CCN2S(=O)(=O)c2ccccc2)cc1 (stereo not drawn) [compound 216] | 
eliminated all activity | COc1ccc(OCC2c3cc(OC)c(OC)cc3CCN2S(=O)(=O)c2cccc(Cl)c2)cc1 (stereo not drawn) [compound 217] | 

SMILES | activity on GluN2C- or GluN2D-containing receptors [1] | other results
COc1ccc(OCC2c3ccc(OC)c(OC)c3CCN2C(=O)c2cccc(Cl)c2)cc1 (stereo not drawn) [compound 120, (3-chlorophenyl)(5,6-dimethoxy-1-((4-methoxyphenoxy)methyl)-3,4-dihydroisoquinolin-2(1H)-yl)methanone] | inactive | 
COc1ccc(OCC2c3ccc(OC)c(OC)c3CCN2C(=O)c2cccc(Br)c2)cc1 (stereo not drawn) [compound 121, (3-bromophenyl)(5,6-dimethoxy-1-((4-methoxyphenoxy)methyl)-3,4-dihydroisoquinolin-2(1H)-yl)methanone] | inactive | 
